Measured values reported in publication PMC11229374, “Unlocking the potential of protein-derived peptides to target G-quadruplex DNA: from recognition to anticancer activity” (Nucleic Acids Research, 2024).
Values joined by “and” are separate entries in the source; they are usually repeats but may differ in a detail not shown here. Equal entries are not always repeated.

Legend:
c-KIT2 G4 [1] = experiment: CD melting, thermal stabilization of c-KIT2 G4; format: binding, human; settings: CD melting at 264 nm, 5 mM KH2PO4/K2HPO4 pH 7.0, 20 mM KCl, average of three
Description: The buffer baseline was subtracted from each spectrum.

c-KIT2 G4 [2] = experiment: Microscale thermophoresis (MST) binding to c-KIT2 G4; design: species or system human; settings: 25°C, 20 nM FITC-labelled peptide, DNA serial dilution, 5 mM KH2PO4/K2HPO4 pH 7.0, 20 mM KCl, 0.1% Tween, 5% DMSO
Protocol: (§1) MST experiments were conducted using a Monolith NT.115 instrument (NanoTemper Technologies, Munich, Germany) at 25°C with medium MST power settings. […] DNA samples were also diluted using the same buffer supplemented with 0.1% Tween. During MST experiments, the concentration of the labelled peptide was kept constant at 20 nM, while a serial dilution of the investigated DNA molecules (ranging from 10 or 20 μM) was prepared and mixed with the peptide solution in a 1:1 volume ratio. All the samples, with a final concentration of 5% DMSO, were loaded into standard capillaries (NanoTemper Technologies) for MST measurements. Data analysis was carried out using the MO.Affinity Analysis (v2.3) software provided with the instrument.

HRAS1 G4 = experiment: Microscale thermophoresis (MST) binding to HRAS1 G4; design: species or system human; settings: 25°C, 20 nM FITC-labelled peptide, same buffer, n.d. = not determined due to undetectable binding
Protocol: as §1

HT-FANA G4 = experiment: Microscale thermophoresis (MST) binding to HT-FANA G4; design: species or system human; settings: 25°C, 20 nM FITC-labelled peptide, DNA serial dilution, 5 mM KH2PO4/K2HPO4 pH 7.0, 20 mM KCl, 0.1% Tween, 5% DMSO
Protocol: as §1

HT1 G4 = experiment: Microscale thermophoresis (MST) binding to HT1 G4; design: species or system human; settings: 25°C, 20 nM FITC-labelled peptide, DNA serial dilution, 5 mM KH2PO4/K2HPO4 pH 7.0, 20 mM KCl, 0.1% Tween, 5% DMSO
Protocol: as §1

HER2 G4 = experiment: Isothermal titration calorimetry (ITC) with HER2 G4; format: binding, human; settings: ITC at 25°C, triplicate
Protocol: ITC experiments were conducted at 25°C using a nano-ITC Low Volume calorimeter (TA instruments, Lindon, UT, USA). DNA and peptide solutions were prepared using the same batch of buffer (5 mM KH2PO4/K2HPO4 buffer containing 20 mM KCl, pH 7.0) to prevent differences in buffer composition and pH. Each titration consisted of 25 injections of a 2 μl peptide solution (280–400 μM) sequentially injected using a computer-controlled 50 μl syringe, into the calorimetric vessel (190 μl) containing the oligonucleotide (16–20 μM). A spacing of 300 s between each injection was applied to allow the system to reach the equilibrium. The heat generated by peptide dilution was assessed in a control experiment by injecting the peptide solution into the buffer (Supplementary Figure S30). All measurements were performed in triplicate. Subsequently, the interaction heat for each injection was calculated considering the correction for the heat of peptide dilution. The corrected heat values were plotted as a function of the molar ratio to provide binding isotherms. […] The equilibrium dissociation constant (Kd), Gibbs free-energy change and entropy change were determined using the following relationships: Kd = 1/Ka, ΔG° = -RT ln Ka (R = 8.314 J mol^−1 K^−1, T = 298.15 K), and TΔS° = ΔH° – ΔG°.

LWDLN1 G4 = experiment: Microscale thermophoresis (MST) binding to LWDLN1 G4; settings: 25°C, 20 nM FITC-labelled peptide, same buffer, n.d. = not determined due to undetectable binding
Protocol: as §1

VEGFR-17T G4 = experiment: Microscale thermophoresis (MST) binding to VEGFR-17T G4; design: species or system human; settings: 25°C, 20 nM FITC-labelled peptide, same buffer, n.d. = not determined due to undetectable binding
Protocol: as §1

c-MYC G4 = experiment: Microscale thermophoresis (MST) binding to c-MYC G4; design: species or system human; settings: 25°C, 20 nM FITC-labelled peptide, DNA serial dilution, 5 mM KH2PO4/K2HPO4 pH 7.0, 20 mM KCl, 0.1% Tween, 5% DMSO
Protocol: as §1

c-KIT1 G4 = experiment: Microscale thermophoresis (MST) binding to c-KIT1 G4; design: species or system human; settings: 25°C, 20 nM FITC-labelled peptide, DNA serial dilution, 5 mM KH2PO4/K2HPO4 pH 7.0, 20 mM KCl, 0.1% Tween, 5% DMSO
Protocol: as §1

HT2 G4 = experiment: Microscale thermophoresis (MST) binding to HT2 G4; design: species or system human; settings: 25°C, 20 nM FITC-labelled peptide, DNA serial dilution, 5 mM KH2PO4/K2HPO4 pH 7.0, 20 mM KCl, 0.1% Tween, 5% DMSO
Protocol: as §1

ds12 duplex = experiment: Microscale thermophoresis (MST) binding to ds12 duplex; settings: 25°C, 20 nM FITC-labelled peptide, same buffer, n.d. = not determined due to undetectable binding
Protocol: as §1

BCL-2 G4 = experiment: Microscale thermophoresis (MST) binding to BCL-2 G4; design: species or system human; settings: 25°C, 20 nM FITC-labelled peptide, DNA serial dilution, 5 mM KH2PO4/K2HPO4 pH 7.0, 20 mM KCl, 0.1% Tween, 5% DMSO
Protocol: as §1

U2OS cells = experiment: Viability assay (crystal violet), U2OS; format: cell-based; settings: 72 h treatment, unconjugated peptides
Protocol: U2OS, HCT116 and MDA-MB-231 cells were purchased from the ATCC and grown in Dulbecco modified Eagle's medium (DMEM; EuroClone, Milan, Italy; ECM0728L) supplemented with 10% Fetal Bovine Serum (FBS, ThermoFisher Scientific/Gibco, Waltham, MA, USA; 10270-106), 2 mM L-glutamine and antibiotics in a humidified incubator at 37°C with 5% CO2 and atmospheric O2 concentration. Cell lines were authenticated and tested to be mycoplasma-free.
U2OS, HCT116, and MDA-MB-231 cells were seeded in 24-well plates at a density of 1 × 10^4, 20 × 10^3 and 12 × 10^3 for each well, respectively. After 24 h, cells were treated with the indicated peptides and incubated at 37°C for additional 72 h. Upon treatment completion, cell medium was removed, the wells were washed twice in phosphate-buffered saline (PBS) and fixed with 4% formaldehyde for 15 min at room temperature (RT). After washing, 500 μl of crystal violet staining solution (Sigma-Aldrich, St. Louis, MO, USA) was added to each well and incubated for 30 min at RT. Finally, the plates were rinsed twice with water, air-dried and cell pellets were dissolved in 400 μl of a 10% aqueous solution of acetic acid. In total, 200 μl of each sample was transferred to a 96-well plate, and the optical density was measured at 570 nm (OD570) with an ELISA reader (Thermo Scientific, Waltham, MA, USA). The average absorbance in each condition was used to calculate the viability expressed as a percentage of treated vs untreated conditions (CTR).

In the case of “Ac-NHTGNSIRHRFRVYLSKRL-NH2 [Myb^397–415]”, the “ΔT1/2 of c-KIT2 G4” value (c-KIT2 G4 [1]; 2 μM DNA, 1 mol equiv peptide, 1°C/min, T1/2 DNA alone 59.5°C) is reported as 11.2 °C and 11.2 (±0.2) °C, the “ΔT1/2 of c-KIT2 G4” value (c-KIT2 G4 [1]; 2 mol equiv of peptide with respect to G4, 2 μM DNA, T1/2 c-KIT2 alone 59.5°C) is reported as 17.3 (±0.2) °C and the Kd (c-KIT2 G4 [2]) is reported as 130 nM. The “Kd for binding to HRAS1 G4” value (HRAS1 G4) was “negligible binding”, the Kd (HT-FANA G4) was 140 nM and the Kd (HT1 G4) was 900 nM. For the same substance, the Ka (HER2 G4; HER2 G4 16–20 μM, peptide 280–400 μM, 5 mM KH2PO4/K2HPO4, 20 mM KCl, pH 7.0) was 1.0 × 10^7 M^−1 and 1.0 (±0.1) ×10^7 M^−1, the Kd (HER2 G4; HER2 G4, Kd = 1/Ka) was 100 nM and the “Kd for binding to LWDLN1 G4” value (LWDLN1 G4) was “negligible binding”. The “Kd for binding to VEGFR-17T G4” value (VEGFR-17T G4) was “negligible binding”, the Kd (c-MYC G4) was 430 nM and the Kd (c-KIT1 G4) was 340 nM. For the same substance, the Kd (HT2 G4) was 1180 nM, the “Kd for binding to ds12 duplex” value (ds12 duplex) was “negligible” and the Kd (BCL-2 G4) was 280 nM. For the same substance, the “Impact on cancer cell viability, peptides in native form” value (U2OS cells) was “unable to significantly impact cancer cells viability”.
